IC50 data for 42 compounds are collected here from patent US9776979B2, “EBI2 modulators” (Sanford-Burnham Medical Research Institute, priority 2013, dated 2017).

Chain of EBI2 (P32249 whole entry): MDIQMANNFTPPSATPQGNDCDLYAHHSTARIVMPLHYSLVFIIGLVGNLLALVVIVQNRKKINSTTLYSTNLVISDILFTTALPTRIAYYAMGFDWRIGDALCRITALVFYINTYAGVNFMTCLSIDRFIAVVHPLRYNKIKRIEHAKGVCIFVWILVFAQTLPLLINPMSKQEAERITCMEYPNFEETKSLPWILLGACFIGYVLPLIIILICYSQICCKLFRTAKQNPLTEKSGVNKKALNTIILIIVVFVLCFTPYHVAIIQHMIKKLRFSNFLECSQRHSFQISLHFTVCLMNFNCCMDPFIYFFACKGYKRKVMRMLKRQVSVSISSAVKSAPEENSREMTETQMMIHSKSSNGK

One test concerns the target EBI2 (Homo sapiens, UniProt P32249). The test is described as follows: Cell-based luminescent assay (EBI2 modulation).
Conditions: not given
Put shortly: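 Cells plated overnight at 37° C, then exposed to compound at 4-5 uM final with 80 nM 7a,25-OHC agonist for 60 min at 37° C. Luminescence read after 60 min detection at 25° C in the dark; values normalized to neutral and stimulator controls and plate-pattern corrected.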
Consider `O=C(/C=C/c1ccc(Br)cc1)N1CCC(Nc2ccccc2)CC1` [Compound C13, (2E)-3-(4-bromophenyl)-1-[4-(phenylamino)piperidyl]prop-2-en-1-one], for which the IC50 was below 100 nM.

Staying with this test, now noted: cell-based luminescence; 7a,25-OHC final assay concentration 80 nM; 60 minutes incubation; read-out: IC50.
As to “N-(4-bromophenyl){4-[(5-chloroindol-2-yl)carbonyl]piperazinyl}carboxamide [Compound C445]”, the IC50 was 100 to 500 nM.

For the compound `O=C(c1cc2cc(Cl)ccc2[nH]1)N1CCN(Cc2ccc(Cl)cc2C(F)(F)F)CC1` [Compound C428, 5-chloroindol-2-yl 4-{[4-chloro-2-(trifluoromethyl)phenyl]methyl}piperazinyl ketone], the IC50 fell in the range of 100 to 500 nM.

`O=C(C#Cc1ccc2c(c1)OCO2)N1CCN(C(=O)c2ccc(C(F)(F)F)cc2)CC1` [Compound C266, 3-(2H-benzo[3,4-d]1,3-dioxolen-5-yl)-1-(4-{[4-(trifluoromethyl)phenyl]carbonyl}piperazinyl)prop-2-yn-1-one]: the IC50 was below 100 nM. The same measure, in the same setting: as for `O=C(c1cc2cc(Cl)ccc2[nH]1)N1CCN(C(=O)c2ccc(F)cc2F)CC1` [Compound C378, 4-[(2,4-difluorophenyl)carbonyl]piperazinyl 5-chloroindol-2-yl ketone], the figure is below 100 nM; as for `O=C(c1cc(Br)c[nH]1)N1CCN(C(c2ccccc2)c2ccccc2)CC1` [Compound C436, 4-(diphenylmethyl)piperazinyl 4-bromopyrrol-2-yl ketone], 100 to 500 nM.

Regarding `O=C(/C=C/c1ccc(Br)cc1)N1CCN(Cc2ccc(F)cc2C(F)(F)F)CC1` [Compound C131, (2E)-3-(4-bromophenyl)-1-(4-{[4-fluoro-2-(trifluoromethyl)phenyl]methyl}piperazinyl)prop-2-en-1-one], the IC50 was below 100 nM.

On to `O=C(c1ccc(C(F)(F)F)cc1)N1CCN(C(=O)c2cc3cc(Br)ccc3[nH]2)CC1` [Compound C140, 5-bromoindol-2-yl 4-{[4-(trifluoromethyl)phenyl]carbonyl}piperazinyl ketone], for which the half-maximal inhibitory concentration (IC50) is below 100 nM.

Turning to `Nc1ccc(/C=C/C(=O)N2CCN(C(c3ccccc3)c3ccccc3)CC2)cc1` [Compound C305, (2E)-3-(4-aminophenyl)-1-[4-(diphenylmethyl)piperazinyl]prop-2-en-1-one], the IC50 was below 100 nM. Still for that read-out and setting: as for `Cc1ccc(C#CC(=O)N2CCN(Cc3ccc(F)cc3)CC2)cc1` [Compound C122, 1-{4-[(4-fluorophenyl)methyl]piperazinyl}-3-(4-methylphenyl)prop-2-yn-1-one], the figure is below 100 nM. Take `O=C(C#Cc1ccc(Cl)cc1)N1CCN(Cc2ccc(F)cc2C(F)(F)F)CC1` [Compound C435, 3-(4-chlorophenyl)-1-(4-{[4-fluoro-2-(trifluoromethyl)phenyl]methyl}piperazinyl)prop-2-yn-1-one]: the IC50 lay within 100 to 500 nM. Turning to `O=C(O)c1ccc(C(=O)N2CCN(C(=O)c3cc4cc(Cl)ccc4[nH]3)CC2)cc1` [Compound C460, 4-({4-[(5-chloroindol-2-yl)carbonyl]piperazinyl}carbonyl)benzoic acid], the IC50 fell in the range of 100 to 500 nM.

Take `O=C(c1ccc2sccc2c1)N1CCN(C(c2ccccc2)c2ccccc2)CC1` [Compound C247, benzo[b]thiophen-5-yl 4-(diphenylmethyl)piperazinyl ketone]: the IC50 was below 100 nM. Still for that read-out and setting: as for `O=C(/C=C/c1ccc(Br)cc1F)N1CCN(S(=O)(=O)c2ccccc2)CC1` [Compound C404, (2E)-3-(4-bromo-2-fluorophenyl)-1-[4-(phenylsulfonyl)piperazinyl]prop-2-en-1-one], the figure is below 100 nM; as for `Cc1ccc(CN2CCN(C(=O)/C=C/c3ccc(Br)cc3)CC2)cc1` [Compound C41, (2E)-3-(4-bromophenyl)-1-{4-[(4-methylphenyl)methyl]piperazinyl}prop-2-en-1-one], below 100 nM; as for `O=C(/C=C/c1ccc(F)c(F)c1)N1CCN(C(c2ccccc2)c2ccccc2)CC1` [Compound C106, (2E)-3-(3,4-difluorophenyl)-1-[4-(diphenylmethyl)piperazinyl]prop-2-en-1-one], below 100 nM. In the case of “3-(4-fluorophenyl)-1-{4-[(4-fluorophenyl)methyl]piperazinyl}prop-2-yn-1-one [Compound C446]”, the IC50 fell in the range of 100 to 500 nM. Regarding `O=C(c1ccc(F)cc1)N1CCN(C(=O)c2cc3ccc(Cl)cc3[nH]2)CC1` [Compound C268, 6-chloroindol-2-yl 4-[(4-fluorophenyl)carbonyl]piperazinyl ketone], the IC50 was below 100 nM. With `O=C(c1ccc(-c2nnn[nH]2)cc1)N1CCN(C(=O)c2cc3ccc(Br)cc3[nH]2)CC1` [Compound C310, 6-bromoindol-2-yl 4-[(4-(1H-1,2,3,4-tetraazol-5-yl)phenyl)carbonyl]piperazinyl ketone], the IC50 was below 100 nM. With `O=C(c1ccc2ccccc2n1)N1CCN(C(c2ccccc2)c2ccccc2)CC1` [Compound C351, 4-(diphenylmethyl)piperazinyl 2-quinolyl ketone], the IC50 was below 100 nM. `O=C(c1cc2cc(Cl)ccc2[nH]1)N1CCC(Oc2ccccn2)CC1` [Compound C289, 5-chloroindol-2-yl 4-(2-pyridyloxy)piperidyl ketone]: the IC50 lay within 100 to 500 nM. In the case of `O=C(/C=C/c1ccc(Br)cc1)N1CCN(Cc2cc(F)cc(F)c2)CC1` [Compound C31, (2E)-1-{4-[(3,5-difluorophenyl)methyl]piperazinyl}-3-(4-bromophenyl)prop-2-en-1-one], the IC50 was below 100 nM. For the compound `O=C(C#Cc1ccc(Br)cc1)N1CCN(Cc2ccc(F)cc2)CC1` [Compound C401, 3-(4-bromophenyl)-1-{4-[(4-fluorophenyl)methyl]piperazinyl}prop-2-yn-1-one], the IC50 was below 100 nM.

As for `COc1ccc(/C=C/C(=O)N2CCN(S(=O)(=O)c3ccc(Br)cc3)CC2)cc1` [Compound C146, (2E)-1-{4-[(4-bromophenyl)sulfonyl]piperazinyl}-3-(4-methoxyphenyl)prop-2-en-1-one], the IC50 is below 100 nM. Same read-out and setting: the same measure for `COc1ccc(C(=O)N2CCN(C(=O)C#Cc3ccc(C(F)(F)F)cc3)CC2)cc1` [Compound C9, 1-{4-[(4-methoxyphenyl)carbonyl]piperazinyl}-3-[4-(trifluoromethyl)phenyl]prop-2-yn-1-one]: below 100 nM; for `CCC(C)C(=O)N1CCN(C(=O)/C=C/c2ccc(Br)cc2)CC1` (stereo not drawn) [Compound C78, (2E)-3-(4-bromophenyl)-1-[4-(2-methylbutanoyl)piperazinyl]prop-2-en-1-one]: below 100 nM; for “4-[(3,5-dimethylphenyl)methyl]piperazinyl 5-methylindol-2-yl ketone [Compound C359]”: 100 to 500 nM.

`O=C(c1cc2cc(Cl)ccc2[nH]1)N1CCN(Cc2ccc(F)cc2)CC1` [Compound C319, 5-chloroindol-2-yl 4-[(4-fluorophenyl)methyl]piperazinyl ketone]: the IC50 is below 100 nM. As to `O=C(Oc1ccccc1)N1CCN(C(=O)c2cc3cc(Cl)ccc3[nH]2)CC1` [Compound C416, phenyl 4-[(5-chloroindol-2-yl)carbonyl]piperazinecarboxylate], the IC50 lay within 100 to 500 nM.

In the case of `O=C(c1cc2cc(Cl)ccc2[nH]1)N1CCN(c2ccc(F)cc2)CC1` [Compound C470, 5-chloroindol-2-yl 4-(4-fluorophenyl)piperazinyl ketone], the IC50 was in the range of 100 to 500 nM. Still for that read-out and setting: the same measure for `O=C(C#Cc1ccc(Br)cc1)N1CCN(C(=O)c2ccc(F)cc2C(F)(F)F)CC1` [Compound C336, 3-(4-bromophenyl)-1-(4-{[4-fluoro-2-(trifluoromethyl)phenyl]carbonyl}piperazinyl)prop-2-yn-1-one]: below 100 nM. On the same count and under the same terms, as for `O=C(NCC1CCN(C(=O)/C=C/c2ccc(Br)cc2)CC1)c1ccc(F)cc1` [Compound C136, N-({1-[(2E)-3-(4-bromophenyl)prop-2-enoyl](4-piperidyl)}methyl)(4-fluorophenyl)carboxamide], the figure is below 100 nM; as for `Cc1ccc(C#CC(=O)N2CCN(C(c3ccccc3)c3ccccc3)CC2)cc1` [Compound C58, 1-[4-(diphenylmethyl)piperazinyl]-3-(4-methylphenyl)prop-2-yn-1-one], below 100 nM; as for `O=C(/C=C/c1ccc(Cl)cc1F)N1CCN(S(=O)(=O)c2ccccc2)CC1` [Compound C439, (2E)-3-(4-chloro-2-fluorophenyl)-1-[4-(phenylsulfonyl)piperazinyl]prop-2-en-1-one], 100 to 500 nM.

`Cc1ccc2[nH]c(C(=O)N3CCN(Cc4ccc(Cl)cc4)CC3)cc2c1` [Compound C339, 4-[(4-chlorophenyl)methyl]piperazinyl 5-methylindol-2-yl ketone]: the IC50 was below 100 nM. For “(2E)-1-{4-[(2,4-difluorophenyl)carbonyl]piperazinyl}-3-(4-bromophenyl)prop-2-en-1-one [Compound C46]”, the IC50 was below 100 nM. The same measure, in the same setting: the same measure for “5-bromoindol-2-yl 4-[(4-chlorophenyl)carbonyl]piperazinyl ketone [Compound C85]”: below 100 nM; for “3-(3,5-difluorophenyl)-1-[4-(diphenylmethyl)piperazinyl]prop-2-yn-1-one [Compound C419]”: 100 to 500 nM; for “4-(diphenylmethyl)piperazinyl 8-fluoro(3-quinolyl) ketone [Compound C386]”: below 100 nM. Take `O=C(O)c1cccc(CN2CCN(C(=O)c3cc4cc(Cl)ccc4[nH]3)CC2)c1` [Compound C188, 3-({4-[(5-chloroindol-2-yl)carbonyl]piperazinyl}methyl)benzoic acid]: the concentration for half-maximal inhibition (IC50) fell in the range of 500 to 5000 nM. As to `Cc1ccc2[nH]c(C(=O)N3CCN(Cc4ccc(C(C)(C)C)cc4)CC3)cc2c1` [Compound C244, 4-{[4-(tert-butyl)phenyl]methyl}piperazinyl 5-methylindol-2-yl ketone], the half-inhibitory concentration (IC50) was below 100 nM.

As to `O=C(/C=C/c1ccccc1)N1CCN(C(=O)/C=C/c2ccccc2)CC1` [Compound C99, (2E)-1-[4-((2E)-3-phenylprop-2-enoyl)piperazinyl]-3-phenylprop-2-en-1-one], the concentration for half-maximal inhibition (IC50) was below 100 nM.

The term IC50 denotes the midpoint of a concentration-inhibition curve.
